Drawing on patent US11325899B2, “Benzofurane and benzothiophene derivatives as PGE2 receptor modulators” (IDORSIA PHARMACEUTICALS LTD, priority 2017, dated 2022), this text covers IC50 for 20 molecules.

For one assay, the target named is T1, PTGER2 (EP2) (Homo sapiens, UniProt P43116).
T1 construct: host or cells: HEK 293 (PathHunter PTGER2 b-arrestin cell line)
As to the kind of experiment: hEP2 b-arrestin assay (PathHunter HEK 293 PTGER2 b-arrestin cells). Type of assay: cell-based. To be noted: antagonistic activity, beta-arrestin assay; read-out: hEP2 b-arr IC50. The protocol: (§1) The antagonistic activities of the compounds of formula (I) on the EP2 and EP4 receptors are determined in accordance with the following experimental method.
(§2) The assay is using the PathHunter™ HEK 293 PTGER2 and PTGER4 b-arrestin cell lines from DiscoverX. The system is based on the Enzyme Fragment Complementation Technology. Two complementing fragments of the b-galactosidase enzyme are expressed within stably transfected cells. The larger portion of b-gal, termed EA for Enzyme Acceptor, is fused to the C-terminus of b-arrestin 2. The smaller fragment, termed ProLink™ tag, is fused to PTGER2 (EP2) or PTRGER4 (EP4) at the C-terminus. Upon activation, b-arrestin is recruited which forces the interaction of ProLink and EA, allowing complementation of the two fragments of b-gal and the formation of a functional enzyme which is capable of hydrolysing the substrate and generating a chemiluminescent signal.
The HEK 293 PTGER2 b-arrestin cells (DiscoverX 93-021-4C1) are detached from culture dishes with a cell dissociation buffer (Invitrogen, 13151-014), and collected in growing medium (GM: DMEM+Glutamax-I (Invitrogen 32430)/10% FCS, 1% Penicilin/streptomycin). 5000 cells per well of a 384 well plate (white with white bottom Greiner 781080) are seeded in 20 ul per well of GM. Plate is incubated at 37° C., 5% C02 for 24 hours.
(§3) Stock solutions of test compounds are made at a concentration of 10 mM in DMSO, and serially diluted in DMSO to concentrations required for inhibition dose response curves (tested concentration range 10 μM-2 nM or 1 μM-0.2 nM).
PGE2 (Cayman 14010, stock solution: 10 mM in DMSO) is used as agonist at 5 μM final concentration, corresponding to EC80.
Five microliters of diluted compounds are transferred into the assay plate. Plate is pre-incubated 15 minutes at 37° C. Then five microliters of PGE2 (final conc. 5 μM) are transferred into the assay plate. Plate is incubated 120 minutes at 37° C.
(§4) PathHunter Glo Detection Kit components are thawed and mix according to manufacturer's instructions: 1 part Galacton Star Substrate with 5 parts Emerald II™ Solution, and 19 parts of PathHunter Cell Assay Buffer, respectively. Twelve μl of reagent are transferred to the assay plate and incubate for 1 hour at room temperature in the dark. Luminescence counts are read on a BMG Fluostar Optima reader according to manufacturer's instructions.
(§5) For each compound concentration calculate of the percentage of activity compared to DMSO control value as average±STDEV. (each concentration is measured in duplicate)
(§6) IC50 values and curves are generated with XLfit software (IDBS) using Dose-Response One Site model 203. When compounds were measured multiple times, mean values are given.

For the next assay, the target named is T2, PTGER4 (EP4) (Homo sapiens, UniProt P35408).
T2 construct: host or cells: HEK 293 (PathHunter PTGER4 b-arrestin cell line)
The assay is described as follows: hEP4 b-arrestin assay (PathHunter HEK 293 PTGER4 b-arrestin cells). Type of assay: cell-based. The conditions noted are these: antagonistic activity, beta-arrestin assay; read-out: hEP4 b-arr IC50. The protocol: as §1, §2
The HEK 293 PTGER4 b-arrestin cells (DiscoverX 93-030-4C1) are detached from culture dishes with a cell dissociation buffer (Invitrogen, 13151-014), and collected in growing medium (GM: DMEM+Glutamax-I (Invitrogen 32430)/10% FCS, 1% Penicilin/streptomycin). 5000 cells per well of a 384 well plate (white with white bottom Greiner 781080) are seeded in 20 ul per well of GM. Plate is incubated at 37° C., 5% C02 for 24 hours.
as §3
PGE2 (Cayman 14010, stock solution: 100 uM in DMSO) is used as agonist at 20 nM final concentration, corresponding to EC80.
Five microliters of diluted compounds are transferred into the assay plate. Plate is pre-incubated 15 minutes at 37° C. Then five microliters of PGE2 (final conc. 20 nM) are transferred into the assay plate. Plate is incubated 120 minutes at 37° C.
as §4, §5, §6

T1 sequence (P43116 whole entry): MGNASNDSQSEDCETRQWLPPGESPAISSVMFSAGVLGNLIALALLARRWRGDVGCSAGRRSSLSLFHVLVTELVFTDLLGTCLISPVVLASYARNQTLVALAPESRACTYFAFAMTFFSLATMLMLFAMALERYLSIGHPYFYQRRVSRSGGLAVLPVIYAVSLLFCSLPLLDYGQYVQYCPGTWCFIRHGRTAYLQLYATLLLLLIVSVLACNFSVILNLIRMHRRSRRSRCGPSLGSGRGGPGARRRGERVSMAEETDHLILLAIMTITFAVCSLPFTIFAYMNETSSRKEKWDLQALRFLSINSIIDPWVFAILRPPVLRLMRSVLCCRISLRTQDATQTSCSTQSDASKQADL
T2 sequence (P35408 whole entry): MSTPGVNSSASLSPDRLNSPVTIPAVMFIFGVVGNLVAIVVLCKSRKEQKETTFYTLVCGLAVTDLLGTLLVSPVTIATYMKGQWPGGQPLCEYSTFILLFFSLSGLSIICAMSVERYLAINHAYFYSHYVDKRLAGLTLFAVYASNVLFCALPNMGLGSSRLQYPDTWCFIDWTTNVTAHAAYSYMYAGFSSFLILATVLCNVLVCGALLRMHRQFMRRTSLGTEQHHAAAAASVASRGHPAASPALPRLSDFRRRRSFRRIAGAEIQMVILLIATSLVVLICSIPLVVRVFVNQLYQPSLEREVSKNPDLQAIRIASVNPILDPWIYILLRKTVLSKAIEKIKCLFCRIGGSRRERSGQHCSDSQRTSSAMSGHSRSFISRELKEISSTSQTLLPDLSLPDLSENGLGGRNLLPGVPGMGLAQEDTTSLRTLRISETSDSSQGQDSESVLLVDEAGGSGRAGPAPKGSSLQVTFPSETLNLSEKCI

What is called IC50 is the concentration that gives 50% inhibition. Turning to `CSc1cc(-c2cc(NCCc3c(C#N)sc4ccccc34)ncn2)ccc1C(=O)O` [Example 173, 4-{6-[2-(2-Cyano-benzo[b]thiophen-3-yl)-ethylamino]-pyrimidin-4-yl}-2-methylsulfanyl-benzoic acid], the IC50 at PTGER2 (EP2) was 0.008 µM; at PTGER4 (EP4) it was 0.757 µM.
For `COc1cc(-c2cc(NCCc3c(C#N)sc4ccccc34)ncn2)ccc1CC(=O)O` [Example 174, (4-{6-[2-(2-Cyano-benzo[b]thiophen-3-yl)-ethylamino]-pyrimidin-4-yl}-2-methoxy-phenyl)-acetic acid] the same measures were 0.135 µM and 0.723 µM.
Taken in the same sequence, the figures for `Cc1sc2c(C)cc(F)cc2c1CCNc1cc(-c2ccc(-c3noc(=O)[nH]3)cc2)ncn1` [Example 177, 3-(4-{6-[2-(5-Fluoro-2,7-dimethyl-benzo[b]thiophen-3-yl)-ethylamino]-pyrimidin-4-yl}-phenyl)-[1,2,4]oxadiazol-5(4H)-one [tautomeric form: 3-(4-{6-[2-(5-Fluoro-2,7-dimethyl-benzo[b]thiophen-3-yl)-ethylamino]-pyrimidin-4-yl}-phenyl)-[1,2,4]oxadiazol-5-ol]] were 0.047 µM and 0.212 µM.
Taken in the same sequence, the figures for `Cc1sc2c(C)cc(F)cc2c1CCNc1cc(-c2ccc(C(N)=O)cc2)ncn1` [Example 178, 4-{6-[2-(5-Fluoro-2,7-dimethyl-benzo[b]thiophen-3-yl)-ethylamino]-pyrimidin-4-yl}-benzamide] were 0.048 µM and 0.331 µM.
As to `CCSc1cc(-c2cc(NCCc3c(C)sc4c(C)cc(F)cc34)ncn2)ccc1C(=O)O` [Example 179, 2-Ethylsulfanyl-4-{6-[2-(5-fluoro-2,7-dimethyl-benzo[b]thiophen-3-yl)-ethylamino]-pyrimidin-4-yl}-benzoic acid], the values for the IC50 at PTGER2 (EP2) and at PTGER4 (EP4) were 0.008 µM and 0.184 µM, respectively.
Taken in the same sequence, the figures for `Cc1sc2c(C)cc(F)cc2c1CCNc1cc(-c2ccc(-c3c(O)c(=O)c3=O)cc2)ncn1` [Example 180, 3-(4-{6-[2-(5-Fluoro-2,7-dimethyl-benzo[b]thiophen-3-yl)-ethylamino]-pyrimidin-4-yl}-phenyl)-4-hydroxy-cyclobut-3-ene-1,2-dione] were 0.02 µM and 0.12 µM.
For `CCc1cc(-c2cc(NCCc3c(C)sc4c(C)cc(F)cc34)ncn2)ccc1C(=O)OC` [Example 181, 2-Ethyl-4-{6-[2-(5-fluoro-2,7-dimethyl-benzo[b]thiophen-3-yl)-ethylamino]-pyrimidin-4-yl}-benzoic acid methyl ester] the same measures were 0.126 µM and 0.423 µM.
Take `Cc1sc2c(C)cc(F)cc2c1CCNc1cc(-c2ccc3[nH]ccc3c2)ncn1` [Example 183, [2-(5-Fluoro-2,7-dimethyl-benzo[b]thiophen-3-yl)-ethyl]-[6-(1H-indol-5-yl)-pyrimidin-4-yl]-amine]: the half-inhibitory concentration (IC50) on PTGER2 (EP2) is 0.04 µM; at PTGER4 (EP4), 0.21 µM.
Taken in the same sequence, the figures for `CCc1cc(-c2cc(NCCc3c(C)sc4c(C)cc(F)cc34)ncn2)ccc1CC(=O)O` [Example 185, (2-Ethyl-4-{6-[2-(5-fluoro-2,7-dimethyl-benzo[b]thiophen-3-yl)-ethylamino]-pyrimidin-4-yl}-phenyl)-acetic acid] were 0.05 µM and 0.134 µM.
Taken in the same sequence, the figures for `Cc1sc2c(C)cc(F)cc2c1CCNc1cc(-c2ccc(CC(=O)O)c(OC(F)(F)F)c2)ncn1` [Example 187, (4-{6-[2-(5-Fluoro-2,7-dimethyl-benzo[b]thiophen-3-yl)-ethylamino]-pyrimidin-4-yl}-2-trifluoromethoxy-phenyl)-acetic acid] were 0.079 µM and 0.425 µM.
Taken in the same sequence, the figures for `Cc1sc2c(C)cc(F)cc2c1CCNc1cc(-c2ccc(NC=O)cc2)ncn1` [Example 188, N-(4-{6-[2-(5-Fluoro-2,7-dimethyl-benzo[b]thiophen-3-yl)-ethylamino]-pyrimidin-4-yl}-phenyl)-formamide] were 0.098 µM and 0.694 µM.
As for `CCOc1cc(-c2cc(NCCc3c(C)sc4c(C)cc(F)cc34)ncn2)ccc1NC=O` [Example 191, N-(2-Ethoxy-4-{6-[2-(5-fluoro-2,7-dimethyl-benzo[b]thiophen-3-yl)-ethylamino]-pyrimidin-4-yl}-phenyl)-formamide], the IC50 at PTGER2 (EP2) is 0.045 µM; on PTGER4 (EP4), 0.135 µM.
For `Cc1sc2c(C)cc(F)cc2c1CCNc1cc(-c2ccc(CC(=O)O)c(OC(C)C)c2)ncn1` [Example 192, (4-{6-[2-(5-Fluoro-2,7-dimethyl-benzo[b]thiophen-3-yl)-ethylamino]-pyrimidin-4-yl}-2-isopropoxy-phenyl)-acetic acid] the same measures were 0.072 µM and 0.261 µM.
For `CCc1cc(-c2cc(NCCc3c(C)sc4c(C)cc(F)cc34)ncn2)ccc1C(=O)O` [Example 193, 2-Ethyl-4-{6-[2-(5-fluoro-2,7-dimethyl-benzo[b]thiophen-3-yl)-ethylamino]-pyrimidin-4-yl}-benzoic acid] the same measures were 0.018 µM and 0.667 µM.
For `CCc1cc(-c2cc(NCCc3c(C)sc4c(C)cc(F)cc34)ncn2)sc1CC(=O)O` [Example 197, (3-Ethyl-5-{6-[2-(5-fluoro-2,7-dimethyl-benzo[b]thiophen-3-yl)-ethylamino]-pyrimidin-4-yl}-thiophen-2-yl)-acetic acid] the same measures were 0.085 µM and 0.146 µM.
Consider `Cc1cc(-c2cc(NCCc3c(C)sc4c(C)cc(F)cc34)ncn2)cc(Cl)c1CC(=O)O` [Example 198, (2-Chloro-4-{6-[2-(5-fluoro-2,7-dimethyl-benzo[b]thiophen-3-yl)-ethylamino]-pyrimidin-4-yl}-6-methyl-phenyl)-acetic acid], for which the IC50 turned out to be 0.077 µM at PTGER2 (EP2) and 0.175 µM at PTGER4 (EP4).
In the case of `CCOc1cc(-c2cc(NCCc3c(C)sc4c(C)cc(F)cc34)ncn2)[nH]c1C(=O)O` [Example 199, 3-Ethoxy-5-{6-[2-(5-fluoro-2,7-dimethyl-benzo[b]thiophen-3-yl)-ethylamino]-pyrimidin-4-yl}-1 H-pyrrole-2-carboxylic acid], the results for the IC50 at PTGER2 (EP2) and at PTGER4 (EP4) were 0.005 µM and 0.363 µM, respectively.
Taken in the same sequence, the figures for `CCn1cc(-c2cc(NCCc3c(C)sc4c(C)cc(F)cc34)ncn2)cc1C(=O)O` [Example 200, 1-Ethyl-4-{6-[2-(5-fluoro-2,7-dimethyl-benzo[b]thiophen-3-yl)-ethylamino]-pyrimidin-4-yl}-1H-pyrrole-2-carboxylic acid] were 0.063 µM and 0.55 µM.
Consider `CCCn1cc(-c2cc(NCCc3c(C)sc4c(C)cc(F)cc34)ncn2)cc1C(=O)O` [Example 201, 4-{6-[2-(5-Fluoro-2,7-dimethyl-benzo[b]thiophen-3-yl)-ethylamino]-pyrimidin-4-yl}-1-propyl-1H-pyrrole-2-carboxylic acid], for which the 50% inhibitory concentration (IC50) stood at 0.034 µM on PTGER2 (EP2) and 0.351 µM at PTGER4 (EP4).
Taken in the same sequence, the figures for `COc1cc(-c2cc(NCCc3c(C)sc4c(C)cc(F)cc34)ncn2)ccc1-c1cc(O)no1` [Example 203, 5-(4-{6-[2-(5-Fluoro-2,7-dimethyl-benzo[b]thiophen-3-yl)-ethylamino]-pyrimidin-4-yl}-2-methoxy-phenyl)-isoxazol-3-ol [tautomeric form: 5-(4-(6-((2-(5-fluoro-2,7-dimethylbenzo[b]thiophen-3-yl)ethyl)amino)pyrimidin-4-yl)-2-methoxyphenyl)isoxazol-3(2H)-one]] were 0.016 µM and 0.239 µM.
